Among the data in US10519114B2, “Peptidomimetics and methods of using the same” (The Regents of the University of Michigan, priority 2016, dated 2019) are Ki, EC50 and Emax values, retold here.

As usually defined, the Ki is a measure of affinity in units of concentration, obtained from inhibition or displacement. Read a low Ki as a stronger hold on the target. The EC50 is the concentration at which the effect is half-maximal. Read a high EC50 as a less potent agent. A word on the Emax: it is the greatest response seen or fitted, relative to the assay's reference.

T3 sequence (P41145 whole entry): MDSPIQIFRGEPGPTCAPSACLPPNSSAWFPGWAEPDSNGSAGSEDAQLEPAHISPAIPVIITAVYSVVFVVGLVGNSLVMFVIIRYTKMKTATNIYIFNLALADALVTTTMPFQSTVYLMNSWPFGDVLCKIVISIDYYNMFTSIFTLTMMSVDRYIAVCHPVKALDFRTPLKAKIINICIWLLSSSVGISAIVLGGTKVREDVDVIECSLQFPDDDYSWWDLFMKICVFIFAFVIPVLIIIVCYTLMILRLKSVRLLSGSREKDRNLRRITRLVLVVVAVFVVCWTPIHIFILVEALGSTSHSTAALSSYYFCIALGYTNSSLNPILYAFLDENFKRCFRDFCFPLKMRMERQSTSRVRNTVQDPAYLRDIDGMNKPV

For the first assay, the target named is T1, rat μ (C6-MOR) opioid receptor (Rattus norvegicus, UniProt P33535).
T1 construct: expressed in transfected cells
T1 sequence (P33535 whole entry): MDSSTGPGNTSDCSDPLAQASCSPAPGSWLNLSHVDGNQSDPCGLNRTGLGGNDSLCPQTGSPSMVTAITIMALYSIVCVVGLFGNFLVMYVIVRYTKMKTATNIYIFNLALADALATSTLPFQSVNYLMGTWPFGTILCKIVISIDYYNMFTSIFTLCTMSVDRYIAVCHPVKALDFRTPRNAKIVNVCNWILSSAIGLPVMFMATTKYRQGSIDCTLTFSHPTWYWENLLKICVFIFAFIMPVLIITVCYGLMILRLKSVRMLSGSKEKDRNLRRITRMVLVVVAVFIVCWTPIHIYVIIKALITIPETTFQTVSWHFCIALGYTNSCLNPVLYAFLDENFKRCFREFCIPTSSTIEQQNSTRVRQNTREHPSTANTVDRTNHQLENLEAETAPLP
Kind of assay: Radioligand binding assay, [3H]diprenorphine displacement, MOR. The conditions noted are these: displacement of 0.2 nM [3H]diprenorphine, C6-MOR membranes; mean ± standard error. The gist of the method:
(§1)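 Membranes (20 μg protein) from C6 cells expressing rat μ or δ, or CHO cells expressing human κ receptor, incubated 1 h at room temperature with 0.2 nM [3H]diprenorphine and test peptide in 50 mM Tris-HCl pH 7.4. Filtration, scintillation counting; nonspecific binding with 10 μM naloxone; Ki by logistic nonlinear regression.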
In turn, `Cc1cc(O)cc(C)c1C[C@H](N)C(=O)N[C@@H]1CCCc2ccc(-c3ccc4ccccc4c3)cc21` [Compound 1116] displayed a Ki of 0.24 ± 0.12 nM.
As to `Cc1cc(O)cc(C)c1C[C@H](N)C(=O)N[C@@H]1CCNc2c(CN3CCNCC3)cc(Cc3ccccc3)cc21` [Compound 1131], the affinity corresponds to a Ki of 0.35 nM.
Take `CC(=O)N1CC[C@@H](NC(=O)[C@@H](N)Cc2c(C)cc(O)cc2C)c2cc(Oc3cccc(Cl)c3)ccc21` [Compound 1027]: the affinity corresponds to a Ki of 0.05 ± 0.01 nM.
`Cc1cc(O)cc(C)c1C[C@H](N)C(=O)N[C@@H]1CCCc2ccc(-c3ccccc3)cc21` [Compound 1117] yielded a Ki of 0.57 ± 0.32 nM.
On the same count and under the same terms, as for `Cc1cc(O)cc(C)c1C[C@H](N)C(=O)N[C@H]1CCOc2ccc(Cc3ccccc3)cc21` [Compound 1112], the figure is 6.07 ± 2.41 nM.

The target of the next assay is T2, rat δ (C6-DOR) opioid receptor (Rattus norvegicus, UniProt P33533).
T2 construct: expressed in transfected cells
T2 sequence (P33533 whole entry): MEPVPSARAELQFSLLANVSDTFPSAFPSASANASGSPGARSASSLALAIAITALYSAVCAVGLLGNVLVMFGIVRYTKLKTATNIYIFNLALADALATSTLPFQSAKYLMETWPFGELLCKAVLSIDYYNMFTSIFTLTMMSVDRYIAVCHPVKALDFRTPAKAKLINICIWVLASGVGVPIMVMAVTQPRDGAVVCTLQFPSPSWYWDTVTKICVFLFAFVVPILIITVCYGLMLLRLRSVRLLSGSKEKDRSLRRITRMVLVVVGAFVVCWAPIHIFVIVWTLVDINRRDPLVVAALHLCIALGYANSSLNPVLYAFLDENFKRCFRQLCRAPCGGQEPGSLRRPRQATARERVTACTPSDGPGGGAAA
Kind of assay: Radioligand binding assay, [3H]diprenorphine displacement, DOR. To be noted: displacement of 0.2 nM [3H]diprenorphine, C6-DOR membranes; mean ± standard error. The gist of the method:
as §1
Regarding `Cc1cc(O)cc(C)c1C[C@H](N)C(=O)N[C@@H]1CCCc2ccc(-c3ccc4ccccc4c3)cc21` [Compound 1116], the Ki was determined as 6.03 ± 0.2 nM.
Compound `Cc1cc(O)cc(C)c1C[C@H](N)C(=O)N[C@@H]1CCNc2c(CN3CCNCC3)cc(Cc3ccccc3)cc21` [Compound 1131] showed a Ki of 22 nM.
Compound `CC(=O)N1CC[C@@H](NC(=O)[C@@H](N)Cc2c(C)cc(O)cc2C)c2cc(Oc3cccc(Cl)c3)ccc21` [Compound 1027] displayed a Ki of 5.03 ± 0.29 nM.
As to `Cc1cc(O)cc(C)c1C[C@H](N)C(=O)N[C@@H]1CCCc2ccc(-c3ccccc3)cc21` [Compound 1117], the Ki was determined as 3.99 ± 1.31 nM.
Compound `Cc1cc(O)cc(C)c1C[C@H](N)C(=O)N[C@H]1CCOc2ccc(Cc3ccccc3)cc21` [Compound 1112] showed an inhibition constant (Ki) of 260 ± 62.9 nM.

The next assay has as its target T3, human κ (CHO-KOR) opioid receptor (Homo sapiens, UniProt P41145).
T3 construct: expressed in transfected cells
In words: Radioligand binding assay, [3H]diprenorphine displacement, KOR. The conditions noted are these: displacement of 0.2 nM [3H]diprenorphine, CHO-KOR membranes; mean ± standard error. The gist of the method:
as §1
With `Cc1cc(O)cc(C)c1C[C@H](N)C(=O)N[C@@H]1CCCc2ccc(-c3ccc4ccccc4c3)cc21` [Compound 1116], affinity was put at a Ki of 315.9 ± 0.91 nM.
Regarding `Cc1cc(O)cc(C)c1C[C@H](N)C(=O)N[C@@H]1CCNc2c(CN3CCNCC3)cc(Cc3ccccc3)cc21` [Compound 1131], the affinity corresponds to a Ki of 1.9 nM.
In turn, `CC(=O)N1CC[C@@H](NC(=O)[C@@H](N)Cc2c(C)cc(O)cc2C)c2cc(Oc3cccc(Cl)c3)ccc21` [Compound 1027] gave a Ki of 21 nM. This Ki lies about 11-fold higher than the previous one.
Regarding `Cc1cc(O)cc(C)c1C[C@H](N)C(=O)N[C@@H]1CCCc2ccc(-c3ccccc3)cc21` [Compound 1117], the affinity corresponds to a Ki of 20.9 ± 4.12 nM.
As for `Cc1cc(O)cc(C)c1C[C@H](N)C(=O)N[C@H]1CCOc2ccc(Cc3ccccc3)cc21` [Compound 1112], affinity was put at a Ki of 354 ± 37.1 nM. Against the preceding compound, the Ki is about 17-fold higher.

The target in the next assay is T1, rat μ (C6-MOR) opioid receptor. Kind of assay: Stimulation of [35S]GTPγS binding, MOR. The format is biochemical. The conditions noted are these: [35S]GTPγS binding, C6-MOR membranes; mean ± standard error. The gist of the method: (§2)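 Peptide-stimulated [35S]GTPγS (0.1 nM) binding, with 30 μM GDP, 5 mM MgCl2 and 100 mM NaCl at pH 7.4, was measured over 1 h at room temperature. Membranes came from rat MOR/DOR C6 or human KOR CHO cells. Filter-retained counts were expressed against 10 μM DAMGO, DPDPE or U69,593 respectively; maxima were fitted nonlinearly.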
Background: Binding of GTPγS marks nucleotide exchange on a G protein.
With `Cc1cc(O)cc(C)c1C[C@H](N)C(=O)N[C@@H]1CCNc2c(CN3CCNCC3)cc(Cc3ccccc3)cc21` [Compound 1131], the midpoint of the response, the EC50, lay at 8 nM. This lies in the single-digit nanomolar range.
In turn, `CC(=O)N1CC[C@@H](NC(=O)[C@@H](N)Cc2c(C)cc(O)cc2C)c2cc(Oc3cccc(Cl)c3)ccc21` [Compound 1027] had an EC50 of 8.07 ± 4.81 nM.
As to `Cc1cc(O)cc(C)c1C[C@H](N)C(=O)N[C@@H]1CCCc2ccc(-c3ccccc3)cc21` [Compound 1117], it took 9.51 ± 3.3 nM to reach a half-maximal effect (EC50).
On to `Cc1cc(O)cc(C)c1C[C@H](N)C(=O)N[C@H]1CCOc2ccc(Cc3ccccc3)cc21` [Compound 1112], for which the EC50 is 654 ± 361 nM.

Staying with this assay, now noted: [35S]GTPγS maximal stimulation compared with 10 μM standard DAMGO.
Turning to `Cc1cc(O)cc(C)c1C[C@H](N)C(=O)N[C@@H]1CCCc2ccc(-c3ccc4ccccc4c3)cc21` [Compound 1116], the Emax was -1.1 ± 1.61%.
Take `Cc1cc(O)cc(C)c1C[C@H](N)C(=O)N[C@@H]1CCNc2c(CN3CCNCC3)cc(Cc3ccccc3)cc21` [Compound 1131]: the Emax was determined as 61%.
Regarding `CC(=O)N1CC[C@@H](NC(=O)[C@@H](N)Cc2c(C)cc(O)cc2C)c2cc(Oc3cccc(Cl)c3)ccc21` [Compound 1027], the Emax amounted to 72.2 ± 2.41%.
On the same count and under the same terms, as for `Cc1cc(O)cc(C)c1C[C@H](N)C(=O)N[C@@H]1CCCc2ccc(-c3ccccc3)cc21` [Compound 1117], the figure is 28.7 ± 2.39%.
In the case of `Cc1cc(O)cc(C)c1C[C@H](N)C(=O)N[C@H]1CCOc2ccc(Cc3ccccc3)cc21` [Compound 1112], the Emax stood at 7.18 ± 2.41%.

In the next assay the target is T2, rat δ (C6-DOR) opioid receptor. In words: Stimulation of [35S]GTPγS binding, DOR. It counts as biochemical. To be noted: [35S]GTPγS binding, C6-DOR membranes; mean ± standard error. The gist of the method: as §2
In turn, `Cc1cc(O)cc(C)c1C[C@H](N)C(=O)N[C@@H]1CCNc2c(CN3CCNCC3)cc(Cc3ccccc3)cc21` [Compound 1131] showed an EC50 of 280 nM. In other words, the sub-micromolar range.
Compound `CC(=O)N1CC[C@@H](NC(=O)[C@@H](N)Cc2c(C)cc(O)cc2C)c2cc(Oc3cccc(Cl)c3)ccc21` [Compound 1027] gave an EC50 of 431 ± 216 nM.
Regarding `Cc1cc(O)cc(C)c1C[C@H](N)C(=O)N[C@@H]1CCCc2ccc(-c3ccccc3)cc21` [Compound 1117], the EC50 was found to be 181 ± 28.2 nM.

Staying with this assay, now noted: [35S]GTPγS maximal stimulation compared with 10 μM standard DPDPE.
As for `Cc1cc(O)cc(C)c1C[C@H](N)C(=O)N[C@@H]1CCCc2ccc(-c3ccc4ccccc4c3)cc21` [Compound 1116], the Emax amounted to 1.75 ± 1.44%.
On the same count and under the same terms, as for `Cc1cc(O)cc(C)c1C[C@H](N)C(=O)N[C@@H]1CCNc2c(CN3CCNCC3)cc(Cc3ccccc3)cc21` [Compound 1131], the figure is 17%; as for `CC(=O)N1CC[C@@H](NC(=O)[C@@H](N)Cc2c(C)cc(O)cc2C)c2cc(Oc3cccc(Cl)c3)ccc21` [Compound 1027], 7.42 ± 5.57%.
As to `Cc1cc(O)cc(C)c1C[C@H](N)C(=O)N[C@@H]1CCCc2ccc(-c3ccccc3)cc21` [Compound 1117], the Emax turned out to be 21.2 ± 10.7%.
On the same count and under the same terms, as for `Cc1cc(O)cc(C)c1C[C@H](N)C(=O)N[C@H]1CCOc2ccc(Cc3ccccc3)cc21` [Compound 1112], the figure is 2.48 ± 3.08%.

For a further assay, the target named is T3, human κ (CHO-KOR) opioid receptor. In words: Stimulation of [35S]GTPγS binding, KOR. The format is biochemical. To be noted: [35S]GTPγS binding, CHO-KOR membranes; mean ± standard error. The gist of the method:
as §2
For the compound `Cc1cc(O)cc(C)c1C[C@H](N)C(=O)N[C@@H]1CCCc2ccc(-c3ccc4ccccc4c3)cc21` [Compound 1116], a half-maximal response (EC50) required 237 nM.
On the same count and under the same terms, as for `Cc1cc(O)cc(C)c1C[C@H](N)C(=O)N[C@@H]1CCNc2c(CN3CCNCC3)cc(Cc3ccccc3)cc21` [Compound 1131], the figure is 190 nM.
The compound `CC(=O)N1CC[C@@H](NC(=O)[C@@H](N)Cc2c(C)cc(O)cc2C)c2cc(Oc3cccc(Cl)c3)ccc21` [Compound 1027] returned an EC50 of 791 nM.
On the same count and under the same terms, to `Cc1cc(O)cc(C)c1C[C@H](N)C(=O)N[C@@H]1CCCc2ccc(-c3ccccc3)cc21` [Compound 1117] belongs 321 ± 176 nM.

Still in this assay, the particulars now being: [35S]GTPγS maximal stimulation compared with 10 μM standard U-69,593.
On to `Cc1cc(O)cc(C)c1C[C@H](N)C(=O)N[C@@H]1CCCc2ccc(-c3ccc4ccccc4c3)cc21` [Compound 1116], for which the Emax is 5.57 ± 8.53%.
For `Cc1cc(O)cc(C)c1C[C@H](N)C(=O)N[C@@H]1CCNc2c(CN3CCNCC3)cc(Cc3ccccc3)cc21` [Compound 1131], the Emax is 18%.
Turning to `CC(=O)N1CC[C@@H](NC(=O)[C@@H](N)Cc2c(C)cc(O)cc2C)c2cc(Oc3cccc(Cl)c3)ccc21` [Compound 1027], the Emax is 55.1%.
On to `Cc1cc(O)cc(C)c1C[C@H](N)C(=O)N[C@@H]1CCCc2ccc(-c3ccccc3)cc21` [Compound 1117], for which the Emax was found to be 45.6 ± 1.77%.
Consider `Cc1cc(O)cc(C)c1C[C@H](N)C(=O)N[C@H]1CCOc2ccc(Cc3ccccc3)cc21` [Compound 1112], for which the Emax was -0.061 ± 0.45%.
